Reference: US20100249132A1, “IMIDAZOLE DERIVATIVES” (MERCK PATENT GESELLSCHAFT MIT BESCHRANKTER HAFTUNG, priority 2007, published 2010)

What follows are molecules tested against T1, recombinant autotaxin (Homo sapiens, UniProt Q13822) (assay: Autotaxin test (enzyme test), Amplex Red fluorescence). Conditions: substrate LPC 75 μM, Amplex Red detection, read-out: IC50 (autotaxin inhibition, enzyme test).
T1 construct: made in house; host or cells: Hi5 insect cells (baculovirus)
Type: biochemical
Outline: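 Recombinant human autotaxin from baculovirus/Hi5 (16 ng) was preincubated with compound 30 min at 22 °C. Reaction with 75 μM egg LPC ran 90 min at 37 °C. Released choline was coupled via alkaline phosphatase, choline oxidase and HRP to Amplex Red, read as resorufin fluorescence (ex485/em612) in kinetic mode.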

IC50	Compound
> 10 µM	CC(C)(CCc1nc(C(N)=O)c(NC(=O)Nc2ccc(Cl)cc2)[nH]1)C(=O)O [Compound B75]
> 10 µM	NC(=O)c1nc(CCCCN2C(=O)c3ccccc3C2=O)[nH]c1NC(=O)Nc1ccc(Cl)cc1 [Compound B77]
> 10 µM	NC(=O)c1nc(CN2C(=O)c3ccccc3C2=O)[nH]c1NC(=O)Nc1ccc(Cl)cc1 [Compound B78]
> 10 µM	NC(=O)c1nc(CCC(=O)Nc2ccc3[nH]nnc3c2)[nH]c1NC(=O)Nc1ccc(Cl)cc1 [Compound B80]
> 10 µM	NC(=O)c1nc(Cc2ccc(OCC(=O)O)cc2)[nH]c1NC(=O)c1cc(-c2ccc(Cl)cc2)n[nH]1 [Compound B82]

Continued, molecule first:

Compound	IC50
NC(=O)c1nc(Cc2ccc(C(=O)O)cc2)[nH]c1NC(=O)Nc1ccc(OC(F)(F)F)cc1 [Compound A93, 4-{4-Carbamoyl-5-[3-(4-trifluoromethoxyphenyl)-ureido]-1H-imidazol-2-ylmethyl}benzoic acid]	1 to 10 µM
CCCCc1ccc(NC(=O)Nc2[nH]c(Cc3ccc(C(=O)N4CCOCC4)cc3)nc2C(N)=O)cc1 [Compound A94, 5-[3-(4-Butylphenyl)ureido]-2-[4-(morpholine-4-carbonyl)benzyl]-1H-imidazole-4-carboxamide]	1 to 10 µM
CCCCOc1ccc(NC(=O)Nc2[nH]c(Cc3ccc(O)cc3)nc2C(N)=O)cc1 [Compound A95, 5-[3-(4-Butoxyphenyl)ureido]-2-(4-hydroxy-benzyl)-1H-imidazole-4-carboxamides]	> 10 µM
NC(=O)c1nc(Cc2ccc([N+](=O)[O-])cc2)[nH]c1NC(=O)Nc1ccc(C(F)(F)F)cc1 [Compound A96, 2-(4-Nitrobenzyl)-5-[3-(4-trifluoromethylphenyl)-ureido]-1H-imidazole-4-carboxamide]	> 10 µM
NC(=O)c1nc(Cc2ccc(N)cc2)[nH]c1NC(=O)Nc1ccc(C(F)(F)F)cc1 [Compound A97, 2-(4-aminobenzyl)-5-[3-(4-trifluoromethylphenyl)-ureido]-1H-imidazole-4-carboxamide]	1 to 10 µM
COC(=O)c1ccc(Cc2nc(C(N)=O)c(NC(=O)Nc3ccc(C(F)(F)F)cc3)[nH]2)cc1 [Compound A98, Methyl 4-{4-carbamoyl-5-[3-(4-trifluoromethyl-phenyl)ureido]-1H-imidazol-2-ylmethyl}benzoate]	> 10 µM
COC(=O)c1ccc(Cc2nc(C(N)=O)c(NC(=O)Nc3ccc(OC(F)(F)F)cc3)[nH]2)cc1 [Compound A99, Methyl 4-{4-carbamoyl-5-[3-(4-trifluoromethoxy-phenyl)ureido]-1H-imidazol-2-ylmethyl}benzoate]	> 10 µM
CCCCOc1ccc(NC(=O)Nc2[nH]c(Cc3ccc(CO)cc3)nc2C(N)=O)cc1 [Compound A100, 5-[3-(4-butoxyphenyl)ureido]-2-(4-hydroxy-methylbenzyl)-1H-imidazole-4-carboxamide]	> 10 µM
Cc1oc(-c2ccccc2)cc1NC(=O)Nc1[nH]c(Cc2ccc(C(=O)O)cc2)nc1C(N)=O [Compound A101, 4-{4-Carbamoyl-5-[3-(2-methyl-5-phenylfuran-3-yl)ureido]-1H-imidazol-2-ylmethyl}benzoic acid]	> 10 µM
NC(=O)c1nc(Cc2ccc(C(=O)O)cc2)[nH]c1NC(=O)Nc1cccs1 [Compound A102, 4-[4-Carbamoyl-5-(3-thiophen-2-ylureido)-1H-imidazol-2-ylmethyl]benzoic acid]	1 to 10 µM
NC(=O)c1nc(Cc2ccc(C(=O)NCCc3c[nH]cn3)cc2)[nH]c1NC(=O)Nc1ccc(C(F)(F)F)cc1 [Compound A103, 2-{4-[2-(1H-Imidazol-4-yl)ethylcarbamoyl]benzyl}-5-[3-(4-trifluoromethylphenyl)ureido]-1H-imidazole-4-carboxamide]	> 10 µM
NC(=O)c1nc(CCC(=O)Nc2ccc3[nH]c(=O)oc3c2)[nH]c1NC(=O)Nc1ccc(Cl)cc1 [Compound B79]	> 10 µM
